From US8513234B2, “HIV integrase inhibitors” (Merck Sharp & Dohme Corp., priority 2008, dated 2013) come the findings set out here.

The structures appear in SMILES notation. pIC50: −log10 of the molar value. Where two headings read alike, the source gives them in different places. Some results are limits rather than exact numbers.

In data set [1] the test system is wild type IIIB. As to the kind of experiment: Single cycle infectivity assay in HeLa P4-2 cells, wild type virus. The following applies: for pIC50: single cycle infectivity, wild type IIIB, read-out: wild type IIIB IC50. Format: cell-based, HIV.
Data set [2] relates to virus containing E92Q mutation in the integrase gene. To be noted: k = IC50(mutant)/IC50(wild type). The protocol:
(§1) An assay for measuring the inhibition of acute HIV infection with HeLa P4-2 cells in a single cycle infectivity assay was conducted using methods described in Joyce et al., J. Biol. Chem. 2002, 277: 45811, Hazuda et al., Science 2000, 287: 646, and Kimpton et al, J. Virol. 1992, 66: 2232. Proviral plasmids encoding viruses containing specific mutations in the integrase gene (N155H, Q148R, Y143R, E92Q, or G140S/Q148H) were generated by site-directed mutagenesis, and viruses were produced by transfecting 293T cells with the appropriate proviral plasmids.

Data set [3] has as its system virus containing G140S/Q148H mutation in the integrase gene. The following applies: k = IC50(mutant)/IC50(wild type). The protocol: as §1
Data set [4] relates to virus containing N155H mutation in the integrase gene. The following applies: k = IC50(mutant)/IC50(wild type). The protocol: as §1
Data set [5] concerns virus containing Q148R mutation in the integrase gene. The following applies: k = IC50(mutant)/IC50(wild type). The protocol: as §1
In data set [6] the test system is virus containing Y143R mutation in the integrase gene. The following applies: k = IC50(mutant)/IC50(wild type). The protocol:
as §1

The target in data set [7] is T1, recombinant integrase (HIV-1 integrase) (Human immunodeficiency virus type 1 group M subtype B, UniProt P04585).
T1 construct: Assays for the strand transfer activity of integrase were conducted in accordance with WO 02/30930 for recombinant integrase
The data set is described as follows: HIV-1 integrase assay: strand transfer catalyzed by recombinant integrase. It is filed as biochemical. To be noted: strand transfer activity, read-out: IC50. The protocol: HIV-1 Integrase Assay: Strand Transfer Catalyzed by Recombinant Integrase
Assays for the strand transfer activity of integrase were conducted in accordance with WO 02/30930 for recombinant integrase. […] For example, the compounds prepared in Examples 1 to 5 were tested in the integrase assay and found to have the IC50 values in Table B. (Compounds 6A and 6B were not tested in this assay.)
Further description on conducting the assay using preassembled complexes is found in Wolfe, A. L. et al., J. Virol. 1996, 70: 1424-1432, Hazuda et al., J. Virol. 1997, 71: 7005-7011; Hazuda et al., Drug Design and Discovery 1997, 15: 17-24; and Hazuda et al., Science 2000, 287: 646-650.

The test system of data set [8] is HIV-1. As to the kind of experiment: Inhibition of acute HIV-1 infection of T-lymphoid cells (spread assay). Format: cell-based. The protocol:
Assay for Inhibition of HIV-1 Replication
Assays for the inhibition of acute HIV-1 infection of T-lymphoid cells were conducted in accordance with Vacca, J. P. et al, Proc. Natl. Acad. Sci. USA 1994, 91: 4096.

The mark [9] stands for this setting: Human immunodeficiency virus 1, IIIB, HeLaP4-2, HeLa P4-2 cells.

As for `CN(C)C(=O)C(=O)N(C)C1CCCCn2c1nc(C(=O)NCc1ccc(F)cc1)c(O)c2=O` (single isomer, unassigned; (-)) [Compound Y, (−)N-(2-{[(4-fluorobenzyl)amino]carbonyl}-3-hydroxy-4-oxo-4,6,7,8,9,10-hexahydropyrimido[1,2-a]azepin-10-yl)-N,N′,N′-trimethylethanediamide, reference compound], the pIC50 in data set [1] (setting [9]) was 7.80. Also, in data set [2], the “Number of fold shift in IC50 versus wild type IIIB, E92Q” value (“Number of fold shift … E92Q” below) stood at 4. In data set [3], the “Number of fold shift in IC50 versus wild type IIIB, G140S/Q148H” value (shortened to “Number of fold shift … G140S/Q148H”) turned out to be 406. Moreover, the “Number of fold shift in IC50 versus wild type IIIB, N155H” value (“Number of fold shift … N155H” below) in data set [4] is on record as 15. Besides, the “Number of fold shift in IC50 versus wild type IIIB, Q148R” value (“Number of fold shift … Q148R” below) in data set [5] is given as 26. The “Number of fold shift in IC50 versus wild type IIIB, Y143R” value (“Number of fold shift … Y143R” below) in data set [6] came to 1.
`CO[C@]1(C)CC[C@@H](N(C)C(=O)C(=O)N(C)C)c2nc(C(=O)NCc3ccc(F)c(C)c3)c(O)c(=O)n2C1` [Compound 2A, N-((7R,10R)-2-{[(4-fluoro-3-methylbenzyl)amino]carbonyl}-3-hydroxy-7-methoxy-7-methyl-4-oxo-4,6,7,8,9,10-hexahydropyrimido[1,2-a]azepin-10-yl)-N,N′,N′-trimethylethanediamide]: the pIC50 is 7.43 in data set [7] and 7.77 in data set [1] (setting [9]). The “IC95 (nM) in the presence of 10% FBS” value in data set [8] came to 14 nM. The “Number of fold shift … E92Q” value in data set [2] came out at 1. In addition, in data set [3], the “Number of fold shift … G140S/Q148H” value is given as 10. In addition, the “Number of fold shift … N155H” value in data set [4] was found to be 2. Further, the “Number of fold shift … Q148R” value in data set [5] was determined as 1. Also, in data set [6], the “Number of fold shift … Y143R” value is reported as 2.
With `Cc1cc(CNC(=O)c2nc3n(c(=O)c2O)[C@@H](C)COC[C@H]3N(C)C(=O)C(=O)N(C)C)ccc1F` [Compound 4A, N-((6S,10S)-2-{[(4-fluoro-3-methylbenzyl)amino]carbonyl}-3-hydroxy-6-methyl-4-oxo-6,7,9,10-tetrahydro-4H-pyrimido[1,2-d][1,4]oxazepin-10-yl)-N,N′,N′-trimethylethanediamide], the pIC50 in data set [7] was 7.42; in data set [1] (setting [9]), 7.72. Also, in data set [8], the “IC95 (nM) in the presence of 10% FBS” value is recorded as 10 nM. Also, the “Number of fold shift … E92Q” value in data set [2] was determined as 1. In addition, the “Number of fold shift … G140S/Q148H” value in data set [3] was 12. The “Number of fold shift … N155H” value in data set [4] stood at 2. The “Number of fold shift … Q148R” value in data set [5] is given as 2. For the same compound, the “Number of fold shift … Y143R” value in data set [6] turned out to be 2.
Turning to `Cc1cc(CNC(=O)c2nc3n(c(=O)c2O)[C@H](C)COC[C@@H]3N(C)C(=O)C(=O)N(C)C)ccc1F` [Compound 4C, N-((6R,10R)-2-{[(4-fluoro-3-methylbenzyl)amino]carbonyl}-3-hydroxy-6-methyl-4-oxo-6,7,9,10-tetrahydro-4H-pyrimido[1,2-d][1,4]oxazepin-10-yl)-N,N′,N′-trimethylethanediamide], the pIC50 is 7.32 in data set [7] and 7.59 in data set [1] (setting [9]). For the same compound, the “IC95 (nM) in the presence of 10% FBS” value in data set [8] is 10 nM. For the same compound, the “Number of fold shift … G140S/Q148H” value in data set [3] was determined as 11. Besides, the “Number of fold shift … N155H” value in data set [4] came out at 3. The “Number of fold shift … Q148R” value in data set [5] is given as 3. In addition, in data set [6], the “Number of fold shift … Y143R” value worked out at 1.
`Cc1cc(CNC(=O)c2nc3n(c(=O)c2O)[C@H](C)COC[C@H]3N(C)C(=O)C(=O)N(C)C)ccc1F` [Compound 4D, N-((6R,10S)-2-{[(4-fluoro-3-methylbenzyl)amino]carbonyl}-3-hydroxy-6-methyl-4-oxo-6,7,9,10-tetrahydro-4H-pyrimido[1,2-d][1,4]oxazepin-10-yl)-N,N′,N′-trimethylethanediamide]: the figures for the pIC50 in data set [7] and in data set [1] (setting [9]) were 7.44 and 7.70, respectively. Besides, the “IC95 (nM) in the presence of 10% FBS” value in data set [8] is recorded as 6 nM. Moreover, the “Number of fold shift … G140S/Q148H” value in data set [3] was 72. For the same compound, the “Number of fold shift … N155H” value in data set [4] is reported as 8. Further, the “Number of fold shift … Q148R” value in data set [5] amounted to 9. Besides, the “Number of fold shift … Y143R” value in data set [6] was found to be 2.
For `CC[C@@H]1COC[C@H](N(C)C(=O)C(=O)N(C)C)c2nc(C(=O)NCc3ccc(F)cc3)c(O)c(=O)n21` [Compound 5C, N-((6R,10R)-6-ethyl-2-{[(4-fluorobenzyl)amino]carbonyl}-3-hydroxy-4-oxo-6,7,9,10-tetrahydro-4H-pyrimido[1,2-d][1,4]oxazepin-10-yl)-N N′N′-trimethylethanediamide], the pIC50 was 7.39 in data set [7] and 7.68 in data set [1] (setting [9]). In addition, the “IC95 (nM) in the presence of 10% FBS” value in data set [8] amounted to 14 nM. The “Number of fold shift … G140S/Q148H” value in data set [3] was 116. For the same compound, the “Number of fold shift … N155H” value in data set [4] was 7. Moreover, the “Number of fold shift … Q148R” value in data set [5] is on record as 7. Besides, in data set [6], the “Number of fold shift … Y143R” value was 2.
For the compound `CC[C@@H]1COC[C@@H](N(C)C(=O)C(=O)N(C)C)c2nc(C(=O)NCc3ccc(F)cc3)c(O)c(=O)n21` [Compound 5D, N-((6R,10S)-6-ethyl-2-{[(4-fluorobenzyl)amino]carbonyl}-3-hydroxy-4-oxo-6,7,9,10-tetrahydro-4H-pyrimido[1,2-d][1,4]oxazepin-10-yl)-N N′ N′-trimethylethanediamide], the pIC50 is 7.38 in data set [7] and 7.59 in data set [1] (setting [9]). The “IC95 (nM) in the presence of 10% FBS” value in data set [8] turned out to be 20 nM. Moreover, the “Number of fold shift … G140S/Q148H” value in data set [3] is 18. For the same compound, the “Number of fold shift … N155H” value in data set [4] amounted to 13. For the same compound, the “Number of fold shift … Q148R” value in data set [5] was determined as 14. For the same compound, the “Number of fold shift … Y143R” value in data set [6] is given as 1.
As for `CCN(C(=O)C(=O)N(C)C)[C@@H]1CC[C@H](OC)Cn2c1nc(C(=O)NCc1ccc(F)cc1)c(O)c2=O` [Compound 6A, N-ethyl-N-((7S,10R)-2-{[(4-fluorobenzyl)amino]carbonyl}-3-hydroxy-7-methoxy-4-oxo-4,6,7,8,9,10-hexahydropyrimido [1,2-a]azepin-10-yl)-N′,N′-dimethylethanediamide], in data set [8], the “IC95 (nM) in the presence of 10% FBS” value stood at 12 nM. Also, the pIC50 in data set [1] (setting [9]) was 7.80. Also, the “Number of fold shift … E92Q” value in data set [2] came out at 3. In addition, the “Number of fold shift … G140S/Q148H” value in data set [3] came to 2. The “Number of fold shift … N155H” value in data set [4] stood at 2. Further, the “Number of fold shift … Q148R” value in data set [5] was 1. Further, in data set [6], the “Number of fold shift … Y143R” value amounted to 3.
With `Cc1nnc(C(=O)NC(C)(C)c2nc(C(=O)NCc3ccc(F)cc3)c(O)c(=O)n2C)o1` [Compound X, raltegravir, reference compound], in data set [1] (Human immunodeficiency virus 1, IIIB, HeLaP4-2, read-out: wild type IIIB IC50 (nM)), the IC50 stood at 52 nM. Moreover, the “Number of fold shift … E92Q” value in data set [2] came out at 3. The “Number of fold shift … G140S/Q148H” value in data set [3] is on record as 397. Besides, in data set [4], the “Number of fold shift … N155H” value was found to be 13. Further, the “Number of fold shift … Q148R” value in data set [5] was found to be 22. Besides, the “Number of fold shift … Y143R” value in data set [6] stood at 15.
With `CC1(C)OCCn2c1nc(C(=O)NCc1ccc(F)cc1)c(O)c2=O` [Compound Z, N-[(4-fluorophenyl)methyl]-3-hydroxy-9,9-dimethyl-4-oxo-4,6,7,9-tetrahydro-6H-pyrimido[2,1-c][1,4]oxazine-2-carboxamide, reference compound], the pIC50 in data set [1] (HeLa P4-2 cells) is 7.47. Further, in data set [2], the “Number of fold shift … E92Q” value is 26. Also, in data set [3], the “Number of fold shift … G140S/Q148H” value was over 34. Also, in data set [4], the “Number of fold shift … N155H” value was determined as 32. Also, the “Number of fold shift … Q148R” value in data set [5] is reported as over 34. Besides, in data set [6], the “Number of fold shift … Y143R” value is recorded as 1.
